Where two headings read alike, the source gives them in different places.
Tests used:
[1] = target: recombinant human GALK1 (Homo sapiens, UniProt P51570); experiment: hGALK1 biochemical activity assay (Kinase-Glo Plus, ATP depletion)
Experimental: In vitro hGALK1 activity assays were performed as previously described. Liu et al., Bioorg. Med. Chem. Lett. 25(3): 721-727 (2015), which is incorporated by reference herein for the specific teachings thereof. The biochemical assay was performed by coupling the activity of recombinant human or mouse GALK1 to the Kinase-Glo Plus luminescent ATP detection kit, using ATP depletion as a measure of GALK1 turnover. Specifically, three μL/well of ATP substrate solution (35 μM ATP) in assay buffer (20 mM HEPES pH 8.0, 5 mM MgCl2, 60 mM NaCl, 1 mM DTT, 0.01% BSA final concentration) was dispensed into 1536-well assay plates (Greiner, white solid-bottom medium-binding plates). Aliquots of compound (23 nL solubilized in DMSO) were transferred to the assay plates using a Kalypsys 1536-well pintool such that 11 concentrations with 1/3 dilutions ranging from 57.4 μM-0.97 nM are tested. One μL/well of GALK-galactose solution (5 nM GALK1, 100 μM galactose) in assay buffer was then added, yielding a final reaction volume of 4 μL/well. Following a 1-hour room temperature incubation, 4 μL of Kinase-Glo Plus detection reagent was added to provide an ATP-dependent luminescent readout (final assay volume: 8 μL/well).

[2] = target: recombinant mouse GALK1 (Mus musculus, UniProt Q9R0N0); experiment: mGALK1 biochemical activity assay (Kinase-Glo Plus, ATP depletion)
Chain of recombinant mouse GALK1 (Q9R0N0 whole entry): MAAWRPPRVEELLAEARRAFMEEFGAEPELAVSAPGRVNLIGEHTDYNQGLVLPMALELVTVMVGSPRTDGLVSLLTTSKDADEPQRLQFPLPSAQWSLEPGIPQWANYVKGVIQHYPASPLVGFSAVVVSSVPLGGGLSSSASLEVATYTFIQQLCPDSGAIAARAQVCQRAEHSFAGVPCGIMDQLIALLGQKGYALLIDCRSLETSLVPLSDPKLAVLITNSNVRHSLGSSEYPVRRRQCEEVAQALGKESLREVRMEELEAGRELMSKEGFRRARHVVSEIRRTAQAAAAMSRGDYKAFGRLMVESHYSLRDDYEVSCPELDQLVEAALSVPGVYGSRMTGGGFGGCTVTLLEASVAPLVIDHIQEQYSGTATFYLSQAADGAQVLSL
Experimental: In vitro hGALK1 activity assays were performed as previously described. Liu et al., Bioorg. […] The biochemical assay was performed by coupling the activity of recombinant human or mouse GALK1 to the Kinase-Glo Plus luminescent ATP detection kit, using ATP depletion as a measure of GALK1 turnover. […] One μL/well of GALK-galactose solution (5 nM GALK1, 100 μM galactose) in assay buffer was then added, yielding a final reaction volume of 4 μL/well. Following a 1-hour room temperature incubation, 4 μL of Kinase-Glo Plus detection reagent was added to provide an ATP-dependent luminescent readout (final assay volume: 8 μL/well).

[3] = Tables 2-15, 35 μM ATP, 100 μM galactose, 1 h, bracketed figure after some values (e.g. −1.2) is undefined and not reported, read-out: hGALK IC50
[4] = recombinant human GALK1, Kinase-Glo Plus ATP depletion, read-out: hGALK
[5] = Tables 2-15, 35 μM ATP, 100 μM galactose, 1 h, bracketed figure after some values is undefined and not reported, read-out: mGALK IC50
[6] = recombinant mouse GALK1, Kinase-Glo Plus ATP depletion, read-out: mGALK

Chain of recombinant human GALK1 (P51570 whole entry): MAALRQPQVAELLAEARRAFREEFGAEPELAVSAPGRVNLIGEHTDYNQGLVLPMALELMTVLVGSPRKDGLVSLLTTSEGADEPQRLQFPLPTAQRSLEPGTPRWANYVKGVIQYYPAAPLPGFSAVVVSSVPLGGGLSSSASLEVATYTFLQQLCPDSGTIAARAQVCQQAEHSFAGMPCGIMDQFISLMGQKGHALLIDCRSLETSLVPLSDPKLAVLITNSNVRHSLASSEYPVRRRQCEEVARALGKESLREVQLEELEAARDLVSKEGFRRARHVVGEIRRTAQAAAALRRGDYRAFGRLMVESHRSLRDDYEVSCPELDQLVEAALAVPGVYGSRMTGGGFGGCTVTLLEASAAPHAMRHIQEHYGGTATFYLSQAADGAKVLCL

Row | Compound | IC50 [1, 3] | IC50 [1, 4] | IC50 [2, 5] | IC50 [2, 6] | hGALK IC50 ([1]; Tables 2-15, 35 μM ATP, 100 μM galactose, 1 h, bracketed figure after some values (e.g. −1.2) is undefined and not reported) | hGALK (μM) ([1]; recombinant human GALK1, Kinase-Glo Plus ATP depletion) | mGALK IC50 ([2]; Tables 2-15, 35 μM ATP, 100 μM galactose, 1 h, bracketed figure after some values is undefined and not reported) | mGALK (μM) ([2]; recombinant mouse GALK1, Kinase-Glo Plus ATP depletion)
1 | CC1=C(C(=O)Nc2cc(C(=O)O)ccn2)[C@H](c2ccccc2Cl)N=C(Nc2nc3cccc(N)c3o2)N1 [Compound 24, (R)-2-(2-((7-aminobenzo[d]oxazol-2-yl)amino)-4-(2-chlorophenyl)-6-methyl-1,4-dihydropyrimidine-5-carboxamido)isonicotinic acid] | 0.08 µM | 0.86 µM | 1.72 µM | 1.72 µM | – | – | – | –
2 | CC1=C(C(=O)Nc2cc(C(=O)O)ccc2C)C(c2ccccc2Cl)N=C(Nc2nc3ccc(F)cc3o2)N1 (centres unmarked) [Compound 28, 3-(4-(2-chlorophenyl)-2-((6-fluorobenzo[d]oxazol-2-yl)amino)-6-methyl-1,4-dihydropyrimidine-5-carboxamido)-4-methylbenzoic acid] | – | 3.43 µM | – | 17.2 µM | – | – | – | –
3 | CC1=C(C(=O)NCc2cn(C)cn2)C(c2ccccc2Cl)N=C(Nc2nc3ccc(F)cc3o2)N1 (centres unmarked) [Compound 34, 4-(2-chlorophenyl)-2-((6-fluorobenzo[d]oxazol-2-yl)amino)-6-methyl-N-((1-methyl-1H-imidazol-4-yl)methyl)-1,4-dihydropyrimidine-5-carboxamide] | – | 8.63 µM | – | 19.3 µM | – | – | – | –
4 | COc1ccc([C@@H]2N=C(Nc3nc4ccc(F)cc4o3)NC(C)=C2C(=O)Nc2cc(C(=O)O)ccn2)c(Cl)c1 [Compound 53, (R)-2-(4-(2-chloro-4-methoxyphenyl)-2-((6-fluorobenzo[d]oxazol-2-yl)amino)-6-methyl-1,4-dihydropyrimidine-5-carboxamido)isonicotinic acid] | 0.25 µM | 0.25 µM | 1.99 µM | 1.99 µM | – | – | – | –
5 | COc1ccc([C@H]2N=C(Nc3nc4ccc(F)cc4o3)NC(C)=C2C(=O)Nc2cc(C(=O)O)ccn2)c(Cl)c1 [Compound 54, (S)-2-(4-(2-chloro-4-methoxyphenyl)-2-((6-fluorobenzo[d]oxazol-2-yl)amino)-6-methyl-1,4-dihydropyrimidine-5-carboxamido)isonicotinic acid] | 4.84 µM | 4.85 µM | 19.3 µM | 19.3 µM | – | – | – | –

Second part, the compound after the results:

Row | IC50 [1, 3] | IC50 [1, 4] | IC50 [2, 5] | IC50 [2, 6] | hGALK IC50 ([1]; Tables 2-15, 35 μM ATP, 100 μM galactose, 1 h, bracketed figure after some values (e.g. −1.2) is undefined and not reported) | hGALK (μM) ([1]; recombinant human GALK1, Kinase-Glo Plus ATP depletion) | mGALK IC50 ([2]; Tables 2-15, 35 μM ATP, 100 μM galactose, 1 h, bracketed figure after some values is undefined and not reported) | mGALK (μM) ([2]; recombinant mouse GALK1, Kinase-Glo Plus ATP depletion) | Compound
6 | – | 4.85 µM | – | 12.2 µM | – | – | – | – | CC1=C(C(=O)Nc2ccc(-c3nn[nH]n3)cn2)C(c2ccccc2Cl)N=C(Nc2nc3ccc(F)cc3o2)N1 (centres unmarked) [Compound 35, N-(5-(2H-tetrazol-5-yl)pyridin-2-yl)-4-(2-chlorophenyl)-2-((6-fluorobenzo[d]oxazol-2-yl)amino)-6-methyl-1,4-dihydropyrimidine-5-carboxamide]
7 | – | 2.43 µM | – | 6.85 µM | – | – | – | – | CC1=C(C(=O)Nc2ccc(C(N)=O)cn2)C(c2ccccc2Cl)N=C(Nc2nc3ccc(F)cc3o2)N1 (centres unmarked) [Compound 36, N-(5-carbamoylpyridin-2-yl)-4-(2-chlorophenyl)-2-((6-fluorobenzo[d]oxazol-2-yl)amino)-6-methyl-1,4-dihydropyrimidine-5-carboxamide]
8 | – | – | – | – | inactive | in- active | inactive | in- active | COC(=O)c1ccccc1NC(=O)C1=C(C)NC(Nc2nc3ccccc3o2)=NC1c1ccccc1Cl (centres unmarked) [Compound 146]
9 | – | 34.4 µM | – | – | – | – | – | – | CC1=C(C(=O)Nc2ccccc2C(=O)O)C(c2ccccc2Cl)N=C(Nc2nc3ccccc3o2)N1 (centres unmarked) [Compound 159, 2-(2-(benzo[d]oxazol-2-ylamino)-4-(2-chlorophenyl)-6-methyl-1,4-dihydropyrimidine-5-carboxamido)benzoic acid]
10 | 6.85 µM | 6.85 µM | 12.2 µM | 12.2 µM | – | – | – | – | CC1=C(C(=O)Nc2ccc(-c3cn[nH]c3)cc2)C(c2ccccc2Cl)N=C(Nc2nc3ccccc3o2)N1 (centres unmarked) [Compound 179, N-(4-(1H-pyrazol-4-yl)phenyl)-2-(benzo[d]oxazol-2-ylamino)-4-(2-chlorophenyl)-6-methyl-1,4-dihydropyrimidine-5-carboxamide]
